The record followed here is the NIST ThermoML archive (doi:10.1016/j.jct.2011.11.021).

± gives the expanded uncertainty stated by the source.

A short description of the first data set: activity coefficient (dimensionless); of the first substance listed, at infinite dilution; xn = mol fraction of the nth substance listed. Conditions: 358.15 K; Liquid; Chromatography; x1 = 0.
With `CCCCCCCC` [octane] + COCC[N+]1(C)CCOCC1.O=S(=O)([N-]S(=O)(=O)C(F)(F)F)C(F)(F)F, the activity coefficient was 51.7 ± 3.5. On the same count and under the same terms, next, `C#CCCCCC` [1-heptyne] + COCC[N+]1(C)CCOCC1.O=S(=O)([N-]S(=O)(=O)C(F)(F)F)C(F)(F)F: 6.79 ± 0.46. As to `CCCC(C)=O` [pentan-2-one] + COCC[N+]1(C)CCOCC1.O=S(=O)([N-]S(=O)(=O)C(F)(F)F)C(F)(F)F, the activity coefficient is 0.918 ± 0.058. In the case of `CCO` [ethanol] + COCC[N+]1(C)CCOCC1.O=S(=O)([N-]S(=O)(=O)C(F)(F)F)C(F)(F)F, the activity coefficient stood at 1.26 ± 0.08.

Consider `CCOCC` [diethyl ether] + COCC[N+]1(C)CCOCC1.O=S(=O)([N-]S(=O)(=O)C(F)(F)F)C(F)(F)F, for which the activity coefficient was found to be 3.39 ± 0.23. Still for that read-out and setting: the figure for `C=Cc1ccccc1` [styrene] + COCC[N+]1(C)CCOCC1.O=S(=O)([N-]S(=O)(=O)C(F)(F)F)C(F)(F)F is 1.76 ± 0.12. Take `CC(C)=O` [acetone] + COCC[N+]1(C)CCOCC1.O=S(=O)([N-]S(=O)(=O)C(F)(F)F)C(F)(F)F: the activity coefficient was determined as 0.47 ± 0.037. On the same count and under the same terms, next, `CCCOCCC` [dipropyl ether] + COCC[N+]1(C)CCOCC1.O=S(=O)([N-]S(=O)(=O)C(F)(F)F)C(F)(F)F: 9.2 ± 0.63; `CCc1ccccc1` [ethylbenzene] + COCC[N+]1(C)CCOCC1.O=S(=O)([N-]S(=O)(=O)C(F)(F)F)C(F)(F)F: 3.04 ± 0.21. For the compound `COC(C)(C)C` [2-methoxy-2-methylpropane] + COCC[N+]1(C)CCOCC1.O=S(=O)([N-]S(=O)(=O)C(F)(F)F)C(F)(F)F, the activity coefficient stood at 3.59 ± 0.24. Turning to `CC(C)CO` [2-methyl-1-propanol] + COCC[N+]1(C)CCOCC1.O=S(=O)([N-]S(=O)(=O)C(F)(F)F)C(F)(F)F, the activity coefficient was 2.04 ± 0.14.

Regarding `CC(C)CC(C)(C)C` [2,2,4-trimethylpentane] + COCC[N+]1(C)CCOCC1.O=S(=O)([N-]S(=O)(=O)C(F)(F)F)C(F)(F)F, the activity coefficient amounted to 37.2 ± 2.5.

Staying with this data set, now noted: 368.15 K; Liquid; Chromatography; x1 = 0.
Turning to `C#CCCCC` [1-hexyne] + COCC[N+]1(C)CCOCC1.O=S(=O)([N-]S(=O)(=O)C(F)(F)F)C(F)(F)F, the activity coefficient is 4.61 ± 0.31. The same measure, in the same setting: next, `CCC(=O)OC` [methyl propanoate] + COCC[N+]1(C)CCOCC1.O=S(=O)([N-]S(=O)(=O)C(F)(F)F)C(F)(F)F: 1.03 ± 0.06; `C=C(C)c1ccccc1` [(1-methylethenyl)benzene] + COCC[N+]1(C)CCOCC1.O=S(=O)([N-]S(=O)(=O)C(F)(F)F)C(F)(F)F: 2.81 ± 0.19; `CCC(C)(C)OC` [2-methoxy-2-methylbutane] + COCC[N+]1(C)CCOCC1.O=S(=O)([N-]S(=O)(=O)C(F)(F)F)C(F)(F)F: 5.28 ± 0.36. The same measure, in the same setting: next, `Cc1ccccc1C` [1,2-dimethylbenzene] + COCC[N+]1(C)CCOCC1.O=S(=O)([N-]S(=O)(=O)C(F)(F)F)C(F)(F)F: 2.58 ± 0.18; `CCC(C)O` (configuration not stated) [butan-2-ol] + COCC[N+]1(C)CCOCC1.O=S(=O)([N-]S(=O)(=O)C(F)(F)F)C(F)(F)F: 1.78 ± 0.12; `CC(=O)O` [acetic acid] + COCC[N+]1(C)CCOCC1.O=S(=O)([N-]S(=O)(=O)C(F)(F)F)C(F)(F)F: 0.468 ± 0.037. For `c1ccncc1` [pyridine] + COCC[N+]1(C)CCOCC1.O=S(=O)([N-]S(=O)(=O)C(F)(F)F)C(F)(F)F, the activity coefficient stood at 0.658 ± 0.045. For `CCCCO` [butan-1-ol] + COCC[N+]1(C)CCOCC1.O=S(=O)([N-]S(=O)(=O)C(F)(F)F)C(F)(F)F, the activity coefficient was determined as 2.02 ± 0.14. Still for that read-out and setting: the figure for `CCC(C)CC` [3-methylpentane] + COCC[N+]1(C)CCOCC1.O=S(=O)([N-]S(=O)(=O)C(F)(F)F)C(F)(F)F is 20.2 ± 1.4. Regarding `C1CCCCCC1` [cycloheptane] + COCC[N+]1(C)CCOCC1.O=S(=O)([N-]S(=O)(=O)C(F)(F)F)C(F)(F)F, the activity coefficient came to 16.6 ± 1.1.

Regarding `O` [water] + COCC[N+]1(C)CCOCC1.O=S(=O)([N-]S(=O)(=O)C(F)(F)F)C(F)(F)F, the activity coefficient was 1.41 ± 0.09. For the compound `CCCCC` [pentane] + COCC[N+]1(C)CCOCC1.O=S(=O)([N-]S(=O)(=O)C(F)(F)F)C(F)(F)F, the activity coefficient stood at 16.3 ± 1.1. For the compound `CCCCCCCC` [octane] + COCC[N+]1(C)CCOCC1.O=S(=O)([N-]S(=O)(=O)C(F)(F)F)C(F)(F)F, the activity coefficient stood at 47.3 ± 3.2. The same measure, in the same setting: next, `C#CCCCCC` [1-heptyne] + COCC[N+]1(C)CCOCC1.O=S(=O)([N-]S(=O)(=O)C(F)(F)F)C(F)(F)F: 6.65 ± 0.45. Take `CCCC(C)=O` [pentan-2-one] + COCC[N+]1(C)CCOCC1.O=S(=O)([N-]S(=O)(=O)C(F)(F)F)C(F)(F)F: the activity coefficient was 0.925 ± 0.058.

On to `CCO` [ethanol] + COCC[N+]1(C)CCOCC1.O=S(=O)([N-]S(=O)(=O)C(F)(F)F)C(F)(F)F, for which the activity coefficient worked out at 1.17 ± 0.07. The same measure, in the same setting: next, `CCOCC` [diethyl ether] + COCC[N+]1(C)CCOCC1.O=S(=O)([N-]S(=O)(=O)C(F)(F)F)C(F)(F)F: 3.37 ± 0.23; `C=Cc1ccccc1` [styrene] + COCC[N+]1(C)CCOCC1.O=S(=O)([N-]S(=O)(=O)C(F)(F)F)C(F)(F)F: 1.76 ± 0.12; `CC(C)=O` [acetone] + COCC[N+]1(C)CCOCC1.O=S(=O)([N-]S(=O)(=O)C(F)(F)F)C(F)(F)F: 0.48 ± 0.037. Consider `CCCOCCC` [dipropyl ether] + COCC[N+]1(C)CCOCC1.O=S(=O)([N-]S(=O)(=O)C(F)(F)F)C(F)(F)F, for which the activity coefficient was determined as 8.97 ± 0.61.

Consider `CCc1ccccc1` [ethylbenzene] + COCC[N+]1(C)CCOCC1.O=S(=O)([N-]S(=O)(=O)C(F)(F)F)C(F)(F)F, for which the activity coefficient came to 2.99 ± 0.2. Same read-out and setting: the figure for `COC(C)(C)C` [2-methoxy-2-methylpropane] + COCC[N+]1(C)CCOCC1.O=S(=O)([N-]S(=O)(=O)C(F)(F)F)C(F)(F)F is 3.6 ± 0.25; for `CC(C)CO` [2-methyl-1-propanol] + COCC[N+]1(C)CCOCC1.O=S(=O)([N-]S(=O)(=O)C(F)(F)F)C(F)(F)F it is 1.89 ± 0.13; for `CC(C)CC(C)(C)C` [2,2,4-trimethylpentane] + COCC[N+]1(C)CCOCC1.O=S(=O)([N-]S(=O)(=O)C(F)(F)F)C(F)(F)F it is 34.1 ± 2.3.
